From ChEMBL document CHEMBL1126498, “Heterocyclic inhibitors of human leukocyte elastase: 3-Hydroxypyridazopyrimidine, 3-hydroxypyridopyrimidine and 3-hydroxyquinazoline-2,4-1H,3H0dione derivatives” (Bioorg Med Chem Lett, 1993)
Active and inactive are the calls of the source. The calls are words filed in the database; no cut-off is given here.

What follows are molecules tested against T1, Neutrophil elastase (Homo sapiens) (UniProt P08246) (assay: The bimolecular rate constant Kobs/[I] to inhibit human leukocyte elastase (HLE) was determined; IA denotes inactive).
T1 sequence (whole entry): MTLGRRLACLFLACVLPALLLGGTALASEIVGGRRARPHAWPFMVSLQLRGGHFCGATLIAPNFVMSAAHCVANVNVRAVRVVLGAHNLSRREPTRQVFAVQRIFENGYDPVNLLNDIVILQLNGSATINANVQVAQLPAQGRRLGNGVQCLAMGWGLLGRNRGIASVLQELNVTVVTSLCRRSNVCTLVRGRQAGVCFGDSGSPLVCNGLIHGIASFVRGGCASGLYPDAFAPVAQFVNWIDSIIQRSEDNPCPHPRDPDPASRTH

K obs / 1 | SMILES
inactive | CS(=O)(=O)On1c(=O)[nH]c2ccccc2c1=O
inactive | CS(=O)(=O)On1c(=O)[nH]c2nccnc2c1=O
inactive | O=c1[nH]c2ccccc2c(=O)n1OS(=O)(=O)c1ccccc1
inactive | O=c1[nH]c2nccnc2c(=O)n1OS(=O)(=O)c1ccccc1

These molecules were tested against T1, Neutrophil elastase (Homo sapiens) (assay: The bimolecular rate constant Kobs/[I] to inhibit human leukocyte elastase (HLE) was determined).

K obs / 1 | SMILES
20 M⁻¹ s⁻¹ | CCCCS(=O)(=O)On1c(=O)[nH]c2nccnc2c1=O
180 M⁻¹ s⁻¹ | CCCCS(=O)(=O)On1c(=O)[nH]c2ccccc2c1=O
64 M⁻¹ s⁻¹ | CCCCS(=O)(=O)On1c(=O)[nH]c2cccnc2c1=O
58 M⁻¹ s⁻¹ | CCCCS(=O)(=O)On1c(=O)[nH]c2ccncc2c1=O
40 M⁻¹ s⁻¹ | CCCCCS(=O)(=O)On1c(=O)[nH]c2ccccc2c1=O
170 M⁻¹ s⁻¹ | CC(C)CS(=O)(=O)On1c(=O)[nH]c2ccccc2c1=O

SMILES | K obs / 1
CCCOP(=O)(OCCC)On1c(=O)[nH]c2ccccc2c1=O | 3160 M⁻¹ s⁻¹
CCCCOP(=O)(OCCCC)On1c(=O)[nH]c2ccccc2c1=O | 3870 M⁻¹ s⁻¹
